Data reported in US6180378A, “Immobilization of bioactive protein in phyllosilicates” (The United States of America as represented by the …, priority 1999, dated 2001).

Columns and labels:
[1] = molecular target: T1, free soybean lipoxygenase (LOX, type I-B) (Glycine max, UniProt P08170); assay: LOX oxidation of linoleic acid, hydroperoxide (HPOD) formation, free enzyme; type: biochemical; conditions: substrate linoleic acid; free LOX under similar conditions
T1 sequence (P08170 1-839): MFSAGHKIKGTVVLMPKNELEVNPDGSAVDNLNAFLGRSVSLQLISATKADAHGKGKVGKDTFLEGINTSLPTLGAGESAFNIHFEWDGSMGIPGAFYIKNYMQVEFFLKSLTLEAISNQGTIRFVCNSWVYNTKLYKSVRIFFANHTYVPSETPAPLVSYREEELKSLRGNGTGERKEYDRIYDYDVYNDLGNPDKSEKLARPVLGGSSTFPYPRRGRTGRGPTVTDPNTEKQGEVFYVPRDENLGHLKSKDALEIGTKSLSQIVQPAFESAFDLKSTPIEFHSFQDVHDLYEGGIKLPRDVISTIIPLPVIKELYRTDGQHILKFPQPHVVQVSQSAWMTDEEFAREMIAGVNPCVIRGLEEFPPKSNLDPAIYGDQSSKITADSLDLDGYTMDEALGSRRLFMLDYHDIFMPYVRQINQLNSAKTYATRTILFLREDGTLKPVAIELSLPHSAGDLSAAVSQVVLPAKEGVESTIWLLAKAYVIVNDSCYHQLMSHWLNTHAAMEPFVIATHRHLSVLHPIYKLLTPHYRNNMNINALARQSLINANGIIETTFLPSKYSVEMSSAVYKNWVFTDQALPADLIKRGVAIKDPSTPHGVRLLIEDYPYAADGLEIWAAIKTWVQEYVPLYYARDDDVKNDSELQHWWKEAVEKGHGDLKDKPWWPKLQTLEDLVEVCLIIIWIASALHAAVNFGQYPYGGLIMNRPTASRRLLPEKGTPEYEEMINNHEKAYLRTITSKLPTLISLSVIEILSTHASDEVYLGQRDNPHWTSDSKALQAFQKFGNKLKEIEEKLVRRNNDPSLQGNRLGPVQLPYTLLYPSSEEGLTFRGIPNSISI
Method: Measurement of Enzymatic Activity. The activity of the immobilized lipoxygenase was assayed by measurement of hydroperoxide formation (Parra-Diaz, D. et al. [1993] supra). An aliquot of the substrate (5 μmoles of linoleic acid) dissolved in methylene chloride was placed in a 10 mL flask and evaporated to dryness under a stream of nitrogen. The reaction medium containing 0.2 mL of 100 mM deoxychlorate (DOC) and 1.8 mL of sodium borate buffer (0.2 M, pH 9.0) was added to the substrate, and the mixture was then shaken at 250 rpm for 0.5 h at 15° C. The reaction was initiated by adding a suitable amount (approximately 0.15 mg) free or immobilized LOX. Oxidation was conducted at 15° C. with agitation at 250 rpm for two hours. The reaction was quenched by adding 400 μL of 1 M citric add. Linoleic acid hydroperoxide was isolated by extracting the reaction mixture twice with 2 mL chloroform:methanol (2/1, v/v). After removing the solvent under a stream of nitrogen, the hydroperoxide was redissolved in 3 mL ethanol. The amount of hydroperoxide was determined spectrophotometrically by the xylenol orange method (Jiang, T.-Y. et al. [1991] Lipids 26:853-856). Standards were prepared by diluting a commercial cumene peroxide. […]

[2] = molecular target: T2, soybean lipoxygenase (LOX, type I-B) immobilized in crosslinked phyllosilicate (TMOS-crosslinked montmorillonite) (Glycine max, UniProt P08170); assay: LOX oxidation of linoleic acid, hydroperoxide (HPOD) formation, immobilized enzyme; type: biochemical; conditions: substrate linoleic acid 0-20 μmoles; Lineweaver-Burk plot; LOX immobilized in crosslinked phyllosilicates
T2 construct: purchased Sigma, St. Louis, Mo
T2 sequence (P08170 1-839): T1 sequence (P08170 1-839)
Method: Measurement of Enzymatic Activity. The activity of the immobilized lipoxygenase was assayed by measurement of hydroperoxide formation (Parra-Diaz, D. et al. [1993] supra). An aliquot of the substrate (5 μmoles of linoleic acid) dissolved in methylene chloride was placed in a 10 mL flask and evaporated to dryness under a stream of nitrogen. The reaction medium containing 0.2 mL of 100 mM deoxychlorate (DOC) and 1.8 mL of sodium borate buffer (0.2 M, pH 9.0) was added to the substrate, and the mixture was then shaken at 250 rpm for 0.5 h at 15° C. The reaction was initiated by adding a suitable amount (approximately 0.15 mg) free or immobilized LOX. Oxidation was conducted at 15° C. with agitation at 250 rpm for two hours. The reaction was quenched by adding 400 μL of 1 M citric add. Linoleic acid hydroperoxide was isolated by extracting the reaction mixture twice with 2 mL chloroform:methanol (2/1, v/v). After removing the solvent under a stream of nitrogen, the hydroperoxide was redissolved in 3 mL ethanol. The amount of hydroperoxide was determined spectrophotometrically by the xylenol orange method (Jiang, T.-Y. et al. [1991] Lipids 26:853-856). […] All results were corrected by subtracting the reading from controls without enzymes. […]
Effect of substrate concentration. The rate of hydroperoxide (HPOD) formation was measured at linoleic acid concentrations ranging from 0-20 μmoles. […]

CCCCC/C=C\C/C=C\CCCCCCCC(=O)O [linoleic acid] was tested, and the Km [1] was 2500 µM, the Vmax [1] was 0.056 mol/min and the Km [2] was 1700 µM. For the same compound, the Vmax [2] was 0.023 µmol/min.
